In ChEMBL document CHEMBL3046347, “Synthesis and biological evaluation of novel curcumin analogues as anti-inflammatory, anti-cancer and anti-oxidant agents” (Med Chem Res, 2012):

What was measured:
[1] = Cytotoxicity against Homo sapiens (human) […] cells at 10 uM; format: cell-based
[2] = molecular target: T1, Prostaglandin G/H synthase 2 (Ovis aries) (UniProt P79208); assay: Inhibition of Ovis aries (sheep) COX2 at 1 uM after 5 min by colorimetric analysis
T1 sequence (whole entry): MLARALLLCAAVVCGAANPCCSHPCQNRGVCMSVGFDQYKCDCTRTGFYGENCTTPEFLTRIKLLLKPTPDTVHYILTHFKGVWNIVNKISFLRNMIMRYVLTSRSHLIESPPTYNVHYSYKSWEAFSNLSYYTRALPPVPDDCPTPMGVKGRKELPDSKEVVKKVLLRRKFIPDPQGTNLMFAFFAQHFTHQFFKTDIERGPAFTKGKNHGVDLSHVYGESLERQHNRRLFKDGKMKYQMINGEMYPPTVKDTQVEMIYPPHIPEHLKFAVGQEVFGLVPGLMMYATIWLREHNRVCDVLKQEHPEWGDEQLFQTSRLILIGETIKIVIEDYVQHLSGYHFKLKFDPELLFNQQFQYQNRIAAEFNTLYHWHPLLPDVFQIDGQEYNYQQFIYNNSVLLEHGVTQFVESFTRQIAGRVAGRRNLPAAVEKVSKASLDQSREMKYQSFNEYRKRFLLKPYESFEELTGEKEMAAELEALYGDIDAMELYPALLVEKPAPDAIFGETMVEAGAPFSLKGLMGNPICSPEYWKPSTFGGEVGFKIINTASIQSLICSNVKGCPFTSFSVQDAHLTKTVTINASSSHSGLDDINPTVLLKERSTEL

[3] = Antioxidant activity assessed as hydroxyl radical scavenging activity at 1 uM by spectrophotometric analysis; format: functional
PANC-1 = assay: Cytotoxicity against Homo sapiens (human) PANC1 cells at 10 uM after 48 hr by propidium iodide-based fluorometric assay; format: functional; settings: PANC-1, 48 h, read-out: GI
HCT-116 = assay: Cytotoxicity against Homo sapiens (human) HCT116 cells at 10 uM after 48 hr by propidium iodide-based fluorometric assay; format: functional; settings: HCT-116, 48 h, read-out: GI
[4] = Antioxidant activity assessed as reduction of potassium ferricynide at 1 uM after 10 min by spectrophotometric analysis; format: functional; design: scale not given: the % may be the effect or the level left
ACHN = assay: Cytotoxicity against Homo sapiens (human) ACHN cells at 10 uM after 48 hr by propidium iodide-based fluorometric assay; format: functional; settings: read-out: GI
[5] = molecular target: T2, Prostaglandin G/H synthase 1 (Ovis aries) (UniProt P05979); settings: at 1 µM;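 also: colorimetric read-out, measured after 5 min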
T2 sequence (whole entry): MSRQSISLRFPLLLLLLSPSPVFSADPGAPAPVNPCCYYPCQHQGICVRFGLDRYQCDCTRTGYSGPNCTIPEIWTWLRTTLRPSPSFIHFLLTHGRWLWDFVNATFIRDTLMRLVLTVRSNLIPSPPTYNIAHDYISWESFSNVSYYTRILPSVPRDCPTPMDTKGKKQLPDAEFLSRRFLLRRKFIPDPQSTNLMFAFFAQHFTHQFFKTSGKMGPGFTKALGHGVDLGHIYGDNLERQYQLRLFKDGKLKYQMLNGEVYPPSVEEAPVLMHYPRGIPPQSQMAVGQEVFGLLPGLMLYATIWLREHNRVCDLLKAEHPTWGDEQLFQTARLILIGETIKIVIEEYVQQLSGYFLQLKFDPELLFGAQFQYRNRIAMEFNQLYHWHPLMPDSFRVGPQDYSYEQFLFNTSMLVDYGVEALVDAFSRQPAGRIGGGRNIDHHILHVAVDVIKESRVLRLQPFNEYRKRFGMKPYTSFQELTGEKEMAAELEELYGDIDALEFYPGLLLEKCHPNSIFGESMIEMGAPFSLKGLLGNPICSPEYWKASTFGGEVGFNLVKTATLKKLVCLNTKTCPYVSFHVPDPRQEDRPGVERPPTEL
Description: Inhibition of Ovis aries (sheep) COX1 at 1 uM after 5 min by colorimetric analysis

Trypsin (Homo sapiens) = Trypsin (Homo sapiens) (UniProt P07477+P07478+P35030); assay: Inhibition of trypsin (unknown origin) using bovine serum albumin as substrate at 1 uM incubated for 20 min prior to substrate addition measured after 25 min by Lowry method; format: protein assay
THP-1 [6] = assay: Anti-inflammatory activity in Homo sapiens (human) THP1 cells assessed as inhibition of LPS-induced IL6 production at 10 uM incubated for 30 min prior to LPS-challenge measured after 24 hr by ELISA; format: functional
[7] = Cytotoxicity against Homo sapiens (human) H460 cells at 10 uM after 48 hr by propidium iodide-based fluorometric assay; format: functional; settings: NCI-H460, 48 h, read-out: GI
[8] = test system: Radical scavenging activity; assay: Antioxidant activity assessed as DPPH radical scavenging activity at 1 uM after 20 min by spectrophotometric analysis; format: functional
THP-1 [9] = assay: Anti-inflammatory activity in Homo sapiens (human) THP1 cells assessed as inhibition of LPS-induced TNFalpha production at 10 uM incubated for 30 min prior to LPS-challenge measured after 24 hr by ELISA; format: functional
[10] = molecular target: T3, Beta-glucuronidase (Homo sapiens) (UniProt P08236); assay: Inhibition of beta-glucuronidase (unknown origin) using p-nitrophenyl-beta-D-glucopyranosiduronic acid as substrate at 1 uM after 30 min by spectrophotometric analysis
T3 sequence (whole entry): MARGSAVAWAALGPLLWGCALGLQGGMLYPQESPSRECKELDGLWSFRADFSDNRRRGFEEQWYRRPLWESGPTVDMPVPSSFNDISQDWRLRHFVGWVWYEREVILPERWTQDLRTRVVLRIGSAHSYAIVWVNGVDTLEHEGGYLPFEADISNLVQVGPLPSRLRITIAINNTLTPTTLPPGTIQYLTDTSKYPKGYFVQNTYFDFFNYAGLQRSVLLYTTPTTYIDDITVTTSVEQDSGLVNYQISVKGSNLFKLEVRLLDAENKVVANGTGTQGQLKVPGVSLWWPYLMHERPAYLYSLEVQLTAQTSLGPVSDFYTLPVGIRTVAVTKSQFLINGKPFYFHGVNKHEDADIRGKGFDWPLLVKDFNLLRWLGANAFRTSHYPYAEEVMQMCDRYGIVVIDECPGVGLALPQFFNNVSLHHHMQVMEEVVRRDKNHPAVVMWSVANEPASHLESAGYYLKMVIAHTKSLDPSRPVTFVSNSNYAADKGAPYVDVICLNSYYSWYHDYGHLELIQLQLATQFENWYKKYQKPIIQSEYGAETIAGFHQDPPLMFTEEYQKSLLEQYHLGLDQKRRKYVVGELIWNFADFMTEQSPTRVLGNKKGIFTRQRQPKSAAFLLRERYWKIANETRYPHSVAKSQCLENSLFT

Calu-1 = assay: Cytotoxicity against Homo sapiens (human) Calu1 cells at 10 uM after 48 hr by propidium iodide-based fluorometric assay; format: functional; settings: Calu-1, 48 h, read-out: GI

Which results are given for `COc1cc(OC)c(/C=C/C(=O)c2cccc(NC(=O)c3ccccc3)c2)c(OC)c1Br`?
Activity [1]: 65%; inhibition [2]: 65.7%; Activity [3]: 54.1%; inhibition of growth at 10 µM (PANC-1): 10%; inhibition of growth at 10 µM (HCT-116): 0%; Activity [4]: 46.6%; inhibition of growth at 10 µM (ACHN): 21%; inhibition [5]: 51.9%; inhibition (Trypsin (Homo sapiens)): 58.1%; inhibition at 10 µM (THP-1 [6]): 98%; inhibition of growth at 10 µM [7]: 14%; Activity [8]: 49.4%; inhibition at 10 µM (THP-1 [9]): 91%; inhibition [10]: 49.6%; inhibition of growth at 10 µM (Calu-1): 6%

Which Activity [8] does the source give for `O=C(O)c1cc(O)c(O)c(O)c1` here?
The Activity was 92.4%.

Which results are given for `COc1cc(OC)c(/C=C/C(=O)c2cccc(NC(=O)c3cccc(C)c3)c2)c(OC)c1Br`?
Activity [1]: 56%; inhibition [2]: 48.2%; Activity [3]: 38.3%; inhibition of growth at 10 µM (PANC-1): 23%; inhibition of growth at 10 µM (HCT-116): 30%; Activity [4]: 29.2%; inhibition of growth at 10 µM (ACHN): 28%; inhibition [5]: 24.2%; inhibition (Trypsin (Homo sapiens)): 51.6%; inhibition at 10 µM (THP-1 [6]): 97%; inhibition of growth at 10 µM [7]: 32%; Activity [8]: 36.7%; inhibition at 10 µM (THP-1 [9]): 87%; inhibition [10]: 66.9%; inhibition of growth at 10 µM (Calu-1): 22%

Which Activity [1] does the source give for `COc1cc(OC)c(/C=C/C(=O)c2cccc(NC(=O)c3cccc(C(F)(F)F)c3)c2)c(OC)c1Br` here?
Its Activity is 65%.

And the inhibition [2]?
The inhibition was 89.2%.

And the inhibition of growth at 10 µM (PANC-1)?
The inhibition of growth at 10 µM was 0%.

What about the inhibition of growth at 10 µM (HCT-116) of the same molecule?
The inhibition of growth at 10 µM was 6%.

And the Activity [4]?
Its Activity is 40.7%.

What about the inhibition of growth at 10 µM (ACHN) of the same molecule?
Its inhibition of growth at 10 µM is 15%.

And the inhibition [5]?
The inhibition was 48.9%.

And the inhibition (Trypsin (Homo sapiens))?
Its inhibition is 65.5%.

And the inhibition at 10 µM (THP-1 [6])?
The inhibition at 10 µM was 97%.

What about the inhibition of growth at 10 µM [7] of the same molecule?
Its inhibition of growth at 10 µM is 4%.

What about the Activity [8] of the same molecule?
The Activity was 45.7%.

And the inhibition at 10 µM (THP-1 [9])?
Its inhibition at 10 µM is 85%.

What about the inhibition [10] of the same molecule?
Its inhibition is 81.4%.

What about the inhibition of growth at 10 µM (Calu-1) of the same molecule?
Its inhibition of growth at 10 µM is 0%.

What does the source list for `COc1cc(OC)c(/C=C/C(=O)c2cccc(NC(=O)c3ccccc3C(F)(F)F)c2)c(OC)c1Br`?
Activity [1]: 62%; inhibition [2]: 87.9%; Activity [3]: 35.9%; inhibition of growth at 10 µM (PANC-1): 3%; inhibition of growth at 10 µM (HCT-116): 6%; Activity [4]: 42.9%; inhibition of growth at 10 µM (ACHN): 6%; inhibition [5]: 39.9%; inhibition (Trypsin (Homo sapiens)): 68.4%; inhibition at 10 µM (THP-1 [6]): 95%; inhibition of growth at 10 µM [7]: 11%; Activity [8]: 44.6%; inhibition at 10 µM (THP-1 [9]): 85%; inhibition [10]: 76.9%; inhibition of growth at 10 µM (Calu-1): 0%

What does the source list for `COc1ccc(C(=O)Nc2cccc(C(=O)/C=C/c3c(OC)cc(OC)c(Br)c3OC)c2)cc1`?
Activity [1]: 65%; inhibition [2]: 38%; Activity [3]: 21.2%; inhibition of growth at 10 µM (PANC-1): 99%; inhibition of growth at 10 µM (HCT-116): 98%; Activity [4]: 26.9%; inhibition of growth at 10 µM (ACHN): 97%; inhibition [5]: 19.6%; inhibition (Trypsin (Homo sapiens)): 39.6%; inhibition at 10 µM (THP-1 [6]): 94%; inhibition of growth at 10 µM [7]: 98%; Activity [8]: 36.3%; inhibition at 10 µM (THP-1 [9]): 63%; inhibition [10]: 34%; inhibition of growth at 10 µM (Calu-1): 99%

For `CC(=O)Oc1ccccc1C(=O)O`, which inhibition [2] is on record?
The inhibition was 36.9%.
